From patent publication US20240277829A1, “HIV-1 VACCINATION AND SAMT-247 MICROBICIDE TO PREVENT HIV-1 INFECTION” (priority 2021, published 2024)
“Also recorded” adds a separate entry of the source.

System: mucosal Th1 and Th2 cells
Experiment: Frequencies and cytokine levels of macaque rectal mucosal T cells following SAMT-247 and PMA stimulation
Format: cell-based
Description: Additionally, rectal tissue from 9 macaques was used for an in vitro study. The age-matched macaques from this separate study (P204) included 4 animals vaccinated against HIV and 5 naïve animals, all challenged with SHIV. Rectal tissue was obtained post challenge from 7 infected and 2 uninfected animals for the P204 study analysis. Extra cells were available from that collection and were used here for the in vitro study.
Frequencies and cytokine levels of macaque rectal mucosal NK cells and T cells following SAMT-247 and PMA stimulation. NK/ILC and T cell frequencies and cytokine levels were measured in macaque rectal mucosa. Freshly collected rectal biopsies were processed to single cells and cultured in R10 in the presence/or absence of SAMT-247 and/or PMA for 12 hours. Subsequently, cells were stained for live cells with Live/Dead Blue dye (cat. #L34962, 0.5 μl) from Thermofisher; followed by surface staining with the following: BUV737 anti-CD3 (SP34-2; cat. #741872, 5 μl), BV711 anti-CD4 (L200; cat. #563913, 5 μl), BV650 anti-NKp44 (P44-8; cat. #744302, 5 μl), Alexa700 anti-CD20 (2H7; cat. #560631, 5 μl), BV786 anti-CD45 (D058-1283; cat. #563861, 5 μl) from BD Biosciences; APC-H7 anti-CD11b (ICRF44; cat. #47-0118-42, 5 μl), PE-Cy5 anti-CD95 (ICRF44; cat. #15-0959-42, 5 μl) from eBioscience; BV570 anti-CD8 (RPA-T8; cat. #301038, 5 μl), BV605 anti-CCR6 (G034E3; cat. #353420, 5 μl), APC anti-CXCR3 (G025H7; cat. #353708, 5 μl), from Biolegend and PE-Cy7 anti-NKG2A (Z199; cat. #B10246, 5 μl) from Beckman coulter for 30 minutes at room temperature. This was followed by permeabilization with a FOX3-transcription buffer set (cat. #00-5523-00) from eBioscience according to the manufacture's recommendation and subsequently intracellular staining with the following: BV750 anti-TNF-α (MAB11; cat. #566359, 5 μl), BUV395 anti-IFN-γ (B27; cat. #563563, 5 μl), BV510 anti-GranB (GB11; cat. #563388, 5 μl), BV421 anti-IL-10 (JES3-9D7; cat. #564053, 5 μl) from BD Biosciences; PE-Cy5.5 anti-IL-17 (BL168; cat. #512314, 5 μl) from Biolegend; and FITC anti-Perforin (pf-344; cat. #3465-7, 5 μl) from MABTECH for 30 minutes at room temperature. Flow cytometry acquisitions were performed on a FACSymphony A5 and examined using FACSDiva software (BD Biosciences).

## CCCCCCCCCCCCCC(=O)O[C@@H]1[C@@H](C)[C@@]2(O)[C@@H](C=C(CO)C[C@]3(O)C(=O)C(C)=C[C@@H]23)[C@@H]2C(C)(C)[C@]12OC(C)=O [PMA]
PMA stimulation
  overall mucosal Th1 and Th2 cell frequencies: did not change
Mucosal Th1
  Cytokines, Unstim vs PMA Stimulation: >TNF-α; also recorded: >IL-10; also recorded: >IFN-γ
Mucosal Th2
  Cytokines, Unstim vs PMA Stimulation: >IFN-γ; also recorded: >TNF-α; also recorded: >IL-10
